Structures are written as SMILES.

One may read the IC50 as the concentration that inhibits the measured activity by half. By melting point is commonly meant the temperature of the solid-liquid transition.

The target of series [1] is T1, reuptake of serotonine (5-HT) in synaptosomes (Rattus norvegicus, UniProt P31652).
T1 construct: in synaptosomes as described in WO 97/16451; from tissue
The experiment in a line: Inhibition of 3H-5-HT reuptake in synaptosomes. Type of series: biochemical. Conditions: as described in WO 97/16451, read-out: 5-HT-uptake IC50. The procedure:
(§1) A number of compounds were tested for their ability to inhibit the reuptake of the monoamine neurotransmitters dopamine (DA) noradrenaline (NA) and serotonine (5-HT) in synaptosomes as described in WO 97/16451.
(§2) The test values are given as IC50 (the concentration (μM) of the test substance which inhibits the specific binding of ^3H-DA, ^3H-NA, or ^3H-5-HT by 50%).

The target in series [2] is T2, reuptake of dopamine (DA) in synaptosomes (Rattus norvegicus, UniProt P23977).
T2 construct: in synaptosomes as described in WO 97/16451; from tissue
The experiment in a line: Inhibition of 3H-DA reuptake in synaptosomes. Type of series: biochemical. The following applies: as described in WO 97/16451, read-out: DA-uptake IC50. The procedure: as §1, §2

T1 sequence (P31652 whole entry): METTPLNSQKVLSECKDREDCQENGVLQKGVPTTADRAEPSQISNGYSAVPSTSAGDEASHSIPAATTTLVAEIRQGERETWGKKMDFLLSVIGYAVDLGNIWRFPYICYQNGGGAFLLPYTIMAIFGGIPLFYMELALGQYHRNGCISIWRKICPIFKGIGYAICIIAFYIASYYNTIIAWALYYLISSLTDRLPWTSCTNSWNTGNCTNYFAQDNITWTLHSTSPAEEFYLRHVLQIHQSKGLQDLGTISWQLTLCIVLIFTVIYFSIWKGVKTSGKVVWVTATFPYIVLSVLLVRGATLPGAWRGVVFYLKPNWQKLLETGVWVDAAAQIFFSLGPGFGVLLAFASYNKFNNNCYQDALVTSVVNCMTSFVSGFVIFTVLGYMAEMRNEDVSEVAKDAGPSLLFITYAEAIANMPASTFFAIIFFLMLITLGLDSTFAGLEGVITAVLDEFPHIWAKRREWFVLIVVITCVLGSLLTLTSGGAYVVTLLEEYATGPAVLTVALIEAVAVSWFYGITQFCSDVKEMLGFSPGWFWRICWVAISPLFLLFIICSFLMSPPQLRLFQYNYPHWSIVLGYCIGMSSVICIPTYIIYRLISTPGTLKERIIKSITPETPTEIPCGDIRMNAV
T2 sequence (P23977 whole entry): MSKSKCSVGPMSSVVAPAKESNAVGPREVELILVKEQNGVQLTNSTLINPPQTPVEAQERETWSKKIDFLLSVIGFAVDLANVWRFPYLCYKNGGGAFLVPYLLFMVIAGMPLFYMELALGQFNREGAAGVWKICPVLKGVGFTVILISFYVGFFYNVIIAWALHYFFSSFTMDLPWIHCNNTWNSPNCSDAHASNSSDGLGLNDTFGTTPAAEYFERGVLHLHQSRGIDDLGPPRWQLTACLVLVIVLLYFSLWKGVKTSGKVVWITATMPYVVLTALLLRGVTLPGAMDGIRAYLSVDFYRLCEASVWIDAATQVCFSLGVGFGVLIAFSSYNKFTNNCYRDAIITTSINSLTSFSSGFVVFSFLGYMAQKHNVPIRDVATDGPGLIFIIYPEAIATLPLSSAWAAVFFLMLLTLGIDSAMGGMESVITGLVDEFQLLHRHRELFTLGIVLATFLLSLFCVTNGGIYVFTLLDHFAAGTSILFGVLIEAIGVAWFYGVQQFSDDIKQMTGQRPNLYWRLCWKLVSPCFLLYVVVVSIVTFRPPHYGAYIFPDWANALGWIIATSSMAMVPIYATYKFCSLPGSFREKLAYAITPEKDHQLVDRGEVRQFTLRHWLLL

`Clc1ccc(NC2CCC3(CCNCC3)CC2)cc1Cl` [2nd last compound of method A, (3-Aza-spiro[5.5]undec-9-yl)-(3,4-dichloro-phenyl)-amine] yielded a melting point of 128 to 132 °C. Besides, the IC50 in series [1] was 2.3 nM. For the same molecule, the IC50 in series [2] amounted to 490 nM.
Turning to `O=c1ccc2ccc(OC3CCC4(CCNCC4)CC3)cc2o1` [3rd compound of method A, 7-(3-Aza-spiro[5.5]undec-9-yloxy)-chromen-2-one], the melting point fell in the range of 126 to 128 °C. Besides, in series [1], the IC50 came out at 2 nM. Moreover, the half-inhibitory concentration (IC50) in series [2] stood at 1200 nM.
